The values below come from ChEMBL document CHEMBL1909046, “DrugMatrix in vitro pharmacology data”.

The nature of assay [1]: DRUGMATRIX: Calcium Channel Type L, Benzothiazepine radioligand binding (ligand: [3H] Diltiazem). Type of assay: cell membranes, Rattus norvegicus, Wistar, Brain, Membrane. The settings on record: Not Active = under 50% inhibition at 10 µM.
A further assay has as its target T1, Substance-K receptor (Homo sapiens, UniProt P21452). Also: in other assays of this panel Not Active means under 50% inhibition at 10 µM.
T1 sequence (P21452 whole entry): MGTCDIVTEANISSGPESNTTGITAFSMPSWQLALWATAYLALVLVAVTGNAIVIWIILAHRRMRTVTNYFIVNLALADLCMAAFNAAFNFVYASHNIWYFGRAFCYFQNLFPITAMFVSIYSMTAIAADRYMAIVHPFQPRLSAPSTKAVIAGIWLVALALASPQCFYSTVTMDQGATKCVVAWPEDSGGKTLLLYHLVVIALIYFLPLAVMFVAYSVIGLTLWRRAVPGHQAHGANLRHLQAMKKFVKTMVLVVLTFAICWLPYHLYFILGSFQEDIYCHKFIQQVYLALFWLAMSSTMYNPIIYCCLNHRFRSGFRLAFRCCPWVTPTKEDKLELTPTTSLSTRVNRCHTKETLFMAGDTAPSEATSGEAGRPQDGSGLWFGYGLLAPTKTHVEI
The class given is cell membranes, CHO, Membrane.

Assay [2] is described as follows: DRUGMATRIX: Glutamate, Kainate radioligand binding (ligand: [3H] Kainic acid). Type of assay: cell membranes, Rattus norvegicus, Wistar, Brain, Membrane. Conditions: Not Active = under 50% inhibition at 10 µM.
The target of the next assay is Melanocortin receptor 3 (Homo sapiens, UniProt P41968). The class given is cell membranes, Membrane. Conditions: hek293. Also: in other assays of this panel Not Active means under 50% inhibition at 10 µM.
In assay [3] the target is T2, Muscarinic acetylcholine receptor M4 (Homo sapiens, UniProt P08173). Also: in other assays of this panel Not Active means under 50% inhibition at 10 µM.
T2 sequence (P08173 whole entry): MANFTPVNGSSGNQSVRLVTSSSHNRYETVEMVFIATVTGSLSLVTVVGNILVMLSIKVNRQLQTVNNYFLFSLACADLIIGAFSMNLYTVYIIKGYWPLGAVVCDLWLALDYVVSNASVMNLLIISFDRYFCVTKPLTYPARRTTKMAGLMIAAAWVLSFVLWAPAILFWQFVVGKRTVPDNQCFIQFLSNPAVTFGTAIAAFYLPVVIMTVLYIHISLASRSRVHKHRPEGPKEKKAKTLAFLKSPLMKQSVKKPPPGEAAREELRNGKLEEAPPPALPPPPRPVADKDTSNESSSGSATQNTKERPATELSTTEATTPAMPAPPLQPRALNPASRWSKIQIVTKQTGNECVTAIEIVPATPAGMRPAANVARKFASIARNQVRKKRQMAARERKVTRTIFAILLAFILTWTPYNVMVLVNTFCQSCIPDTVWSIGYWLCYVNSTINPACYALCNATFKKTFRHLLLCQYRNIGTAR
The class given is cell membranes, CHO-K1, Membrane. The settings on record: cho-k1.

Assay [4] in a line: DRUGMATRIX: Phorbol Ester radioligand binding (ligand: [3H] PDBu). The class given is cell membranes, Mus musculus, ICR, Brain, Membrane. The settings on record: Not Active = under 50% inhibition at 10 µM.
In assay [5] the target is Receptor tyrosine-protein kinase erbB-2 (Homo sapiens, UniProt P04626). As to the kind of experiment: biochemical. Conditions: insect cells. The class given is cell-based, Insect cells.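 Also: inhibition of HER2 kinase enzyme activity, measured with Poly(Glu:Tyr) as the phosphorylation substrate; in other assays of this panel Not Active means under 50% inhibition at 10 µM.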
The target of assay [6] is 5-hydroxytryptamine receptor 1B (Rattus norvegicus, UniProt P28564). The class given is cell membranes, Wistar, Cerebral cortex, Membrane. Also: in other assays of this panel Not Active means under 50% inhibition at 10 µM.
The target in another assay is T3, Estrogen receptor (Homo sapiens, UniProt P03372). Also: in other assays of this panel Not Active means under 50% inhibition at 10 µM.
T3 sequence (P03372 whole entry): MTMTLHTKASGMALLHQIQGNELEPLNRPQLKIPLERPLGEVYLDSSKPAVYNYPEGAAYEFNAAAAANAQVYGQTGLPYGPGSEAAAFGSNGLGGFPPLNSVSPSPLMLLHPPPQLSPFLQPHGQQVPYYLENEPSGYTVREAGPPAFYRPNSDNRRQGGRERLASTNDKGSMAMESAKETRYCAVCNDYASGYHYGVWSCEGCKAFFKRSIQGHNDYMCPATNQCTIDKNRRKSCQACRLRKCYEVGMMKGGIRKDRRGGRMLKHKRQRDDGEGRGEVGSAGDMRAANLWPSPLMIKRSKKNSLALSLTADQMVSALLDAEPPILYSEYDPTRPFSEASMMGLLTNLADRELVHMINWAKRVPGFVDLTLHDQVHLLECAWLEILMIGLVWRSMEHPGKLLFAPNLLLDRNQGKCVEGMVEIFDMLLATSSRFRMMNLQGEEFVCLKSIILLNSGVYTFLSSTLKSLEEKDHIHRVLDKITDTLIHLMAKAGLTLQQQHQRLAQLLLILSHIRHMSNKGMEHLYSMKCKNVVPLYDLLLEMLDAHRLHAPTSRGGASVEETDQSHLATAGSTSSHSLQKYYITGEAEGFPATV
The settings on record: sf9.

Sequence of 5-hydroxytryptamine receptor 1B (P28564 whole entry): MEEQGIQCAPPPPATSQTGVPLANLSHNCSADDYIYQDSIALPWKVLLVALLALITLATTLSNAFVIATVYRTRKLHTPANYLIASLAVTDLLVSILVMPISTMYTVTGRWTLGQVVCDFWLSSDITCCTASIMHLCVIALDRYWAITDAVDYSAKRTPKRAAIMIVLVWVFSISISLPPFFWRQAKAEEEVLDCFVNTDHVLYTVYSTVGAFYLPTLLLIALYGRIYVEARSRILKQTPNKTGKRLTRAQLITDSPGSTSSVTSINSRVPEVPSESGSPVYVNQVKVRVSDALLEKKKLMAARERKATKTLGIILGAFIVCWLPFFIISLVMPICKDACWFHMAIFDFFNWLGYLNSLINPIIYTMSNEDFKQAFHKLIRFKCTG
Sequence of Melanocortin receptor 3 (P41968 whole entry): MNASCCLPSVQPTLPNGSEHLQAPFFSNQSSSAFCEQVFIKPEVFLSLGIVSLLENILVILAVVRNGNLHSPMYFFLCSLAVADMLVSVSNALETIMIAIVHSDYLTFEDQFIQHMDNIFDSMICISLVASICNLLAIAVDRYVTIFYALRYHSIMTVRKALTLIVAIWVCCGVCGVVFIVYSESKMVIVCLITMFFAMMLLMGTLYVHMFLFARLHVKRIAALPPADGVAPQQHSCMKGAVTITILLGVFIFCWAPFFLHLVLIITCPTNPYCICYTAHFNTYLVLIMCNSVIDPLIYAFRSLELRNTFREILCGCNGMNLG
Sequence of Receptor tyrosine-protein kinase erbB-2 (P04626 whole entry): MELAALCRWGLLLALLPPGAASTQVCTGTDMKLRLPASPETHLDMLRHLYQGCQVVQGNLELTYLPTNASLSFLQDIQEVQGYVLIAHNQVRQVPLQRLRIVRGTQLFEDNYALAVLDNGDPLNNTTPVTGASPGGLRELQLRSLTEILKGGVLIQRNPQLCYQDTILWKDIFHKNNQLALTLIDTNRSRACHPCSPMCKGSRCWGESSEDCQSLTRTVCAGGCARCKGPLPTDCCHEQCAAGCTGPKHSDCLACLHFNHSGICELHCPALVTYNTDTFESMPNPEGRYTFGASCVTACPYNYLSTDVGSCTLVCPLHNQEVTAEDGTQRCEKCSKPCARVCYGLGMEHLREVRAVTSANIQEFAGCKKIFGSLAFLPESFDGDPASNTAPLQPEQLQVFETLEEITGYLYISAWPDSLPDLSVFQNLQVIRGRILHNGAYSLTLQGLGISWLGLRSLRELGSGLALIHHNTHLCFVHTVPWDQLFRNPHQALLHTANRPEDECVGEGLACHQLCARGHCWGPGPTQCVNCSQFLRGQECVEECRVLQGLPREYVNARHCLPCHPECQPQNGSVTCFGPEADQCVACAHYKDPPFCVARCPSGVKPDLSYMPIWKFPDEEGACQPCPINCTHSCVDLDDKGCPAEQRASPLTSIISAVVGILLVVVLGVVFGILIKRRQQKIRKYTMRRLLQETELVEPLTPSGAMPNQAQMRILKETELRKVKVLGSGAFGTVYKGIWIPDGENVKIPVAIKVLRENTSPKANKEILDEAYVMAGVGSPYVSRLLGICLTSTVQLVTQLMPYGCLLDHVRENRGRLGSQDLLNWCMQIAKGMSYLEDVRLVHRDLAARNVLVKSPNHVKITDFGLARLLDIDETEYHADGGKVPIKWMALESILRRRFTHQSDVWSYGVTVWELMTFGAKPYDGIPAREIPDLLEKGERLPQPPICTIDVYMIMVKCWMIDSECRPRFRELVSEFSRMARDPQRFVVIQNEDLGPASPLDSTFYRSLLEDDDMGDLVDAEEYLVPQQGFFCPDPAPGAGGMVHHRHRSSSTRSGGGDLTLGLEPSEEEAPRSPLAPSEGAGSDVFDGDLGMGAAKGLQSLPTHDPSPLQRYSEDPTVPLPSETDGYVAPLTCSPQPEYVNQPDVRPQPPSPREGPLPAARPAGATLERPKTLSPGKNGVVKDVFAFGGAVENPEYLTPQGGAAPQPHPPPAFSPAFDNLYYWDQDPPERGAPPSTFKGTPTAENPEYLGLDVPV

The IC50 is the point on the concentration scale where inhibition reaches its midpoint. The Ki is the equilibrium dissociation constant of an inhibitor or competing ligand from its target. With `COc1cc(NS(=O)(=O)c2ccc(N)cc2)nc(OC)n1` [SULFADIMETHOXINE], the IC50 entry (in assay [1]; on Substance-K receptor (cho); in assay [2]; on Melanocortin receptor 3; in assay [3]; in assay [4]) was “Not Active” throughout. Moreover, the IC50 result (in assay [5]; in assay [6]; against Estrogen receptor) was “Not Active” each time. For the same compound, the Ki result in assay [1], in assay [2] and in [4] was “Not Active” each time.

In the case of `C[C@]1(Cn2ccnn2)[C@H](C(=O)O)N2C(=O)C[C@H]2S1(=O)=O` [TAZOBACTAM], the IC50 result (in [1]; against Substance-K receptor (cho); in assay [2]; on Melanocortin receptor 3; in [3]; in assay [4]) was “Not Active” throughout. Further, the IC50 entry (in [5]; in assay [6]; against Estrogen receptor) was “Not Active” throughout. The inhibition constant (Ki) entry in assay [1], in assay [2] and in assay [4] was “Not Active” in each case.

As to `CN1C(C(=O)Nc2ccccn2)=C(O)c2sccc2S1(=O)=O` [TENOXICAM], the IC50 result (in assay [1]; on Substance-K receptor (cho); in assay [2]; at Melanocortin receptor 3; in assay [3]; in [4]) was “Not Active” in each case. The IC50 result (in assay [5]; in [6]; against Estrogen receptor) was “Not Active” throughout. For the same compound, the Ki entry in assay [1], in [2] and in [4] was “Not Active” throughout.

For `CC(C)(C)c1ccc(C(O)CCCN2CCC(C(O)(c3ccccc3)c3ccccc3)CC2)cc1` (centres undefined) [TERFENADINE], the IC50 in assay [1] (read-out: IC50) was 226 nM; on Substance-K receptor (read-out: IC50), 2680 nM; in assay [2], “Not Active”; at Melanocortin receptor 3 it was “Not Active”; in assay [3], “Not Active”; in assay [4], “Not Active”. Moreover, the IC50 result (in [5]; in assay [6]; against Estrogen receptor) was “Not Active” in each case. The Ki in assay [1] (read-out: Ki) was 201 nM; on Substance-K receptor (read-out: Ki), 892 nM; in assay [2], “Not Active”; in [4], “Not Active”.

In the case of `Cc1cccc(Nc2ccncc2S(=O)(=O)NC(=O)NC(C)C)c1` [TORSEMIDE], the IC50 entry (in [1]; against Substance-K receptor (cho); in [2]; against Melanocortin receptor 3; in assay [3]; in assay [4]) was “Not Active” each time. For the same compound, the IC50 result (in assay [5]; in assay [6]; against Estrogen receptor) was “Not Active” each time. Moreover, the Ki entry in [1], in assay [2] and in [4] was “Not Active” each time.

`CC(C)C[C@H](NC(=O)[C@@H](O)[C@H](N)Cc1ccccc1)C(=O)O` [UBENIMEX]: the IC50 result (in assay [1]; against Substance-K receptor (cho); in [2]; at Melanocortin receptor 3; in [3]; in [4]) was “Not Active” each time. The IC50 entry (in [5]; in [6]; at Estrogen receptor) was “Not Active” each time. Besides, the Ki entry in assay [1], in assay [2] and in assay [4] was “Not Active” in each case.

Regarding `CC[C@]1(O)C[C@@H]2CN(CCc3c([nH]c4ccccc34)[C@@](C(=O)OC)(c3cc4c(cc3OC)N(C)[C@H]3[C@@](O)(C(=O)OC)[C@H](OC(C)=O)[C@]5(CC)C=CCN6CC[C@]43[C@@H]65)C2)C1` [VINBLASTINE], the IC50 result (in assay [1]; against Substance-K receptor (cho); in [2]; at Melanocortin receptor 3; in assay [3]; in assay [4]) was “Not Active” each time. For the same compound, the IC50 entry (in assay [5]; in assay [6]; against Estrogen receptor) was “Not Active” in each case. Further, the Ki result in assay [1], in assay [2] and in assay [4] was “Not Active” in each case.

Consider `C[C@@H](N)[C@H]1CC[C@H](C(=O)Nc2ccncc2)CC1` [Y-27632], for which the IC50 result (in [1]; at Substance-K receptor (cho); in assay [2]; on Melanocortin receptor 3; in assay [3]; in assay [4]) was “Not Active” each time. Further, the IC50 result (in assay [5]; in assay [6]; against Estrogen receptor) was “Not Active” throughout. For the same compound, the inhibition constant (Ki) entry in assay [1], in [2] and in assay [4] was “Not Active” each time.

On to `[Cl-].[Cl-].[Zn+2]` [ZINC CHLORIDE], for which the IC50 result (in assay [1]; on Substance-K receptor (cho); in assay [2]; against Melanocortin receptor 3; in assay [3]; in assay [4]) was “Not Active” throughout. Also, the IC50 result (in assay [5]; in [6]; against Estrogen receptor) was “Not Active” throughout. In addition, the Ki entry in assay [1], in [2] and in assay [4] was “Not Active” in each case.
